Data from patent publication US20240150282A1, “NOVEL CRYSTALLINE COMPOUND OF SIPONIMOD HEMIFUMARATE” (OLON S.P.A., priority 2021, published 2024).

How the values were obtained:
[1] = Stability assays of the NP04 Form (storage, humidity, shredding, compression); type: physicochemical
Experimental: Stability assays of the NP04 Form
Aliquots of the compound obtained from Example 1 were subjected to the following assays: • closed in a sealed bottle for 8 days • at 25° C. with 100% relative humidity for 7 days • at 25° C. with 60% relative humidity for 7 days • at 60° C. with 75% relative humidity for 3 days • shredding treatment • Compression test under 1, 2 and 3 tons

[2] = Stability of the crystalline form during isolation and drying; type: physicochemical
Source text: According to another of its aspects, subject-matter of the invention is a process for the preparation of the NP01 Form of Siponimod Hemifumarate, comprising carrying out the steps (a) and (b) stated above for the preparation of the NP04 Form.

Row | solid form stability (form recovered after treatment) ([1]; 25° C. with 60% relative humidity for 7 days) | solid form stability (form recovered after treatment) ([1]; 25° C. with 100% relative humidity for 7 days) | solid form stability (form recovered after treatment) ([1]; 60° C. with 75% relative humidity for 3 days) | solid form stability (form recovered after treatment) ([1]; closed in a sealed bottle for 8 days) | solid form stability (form recovered after treatment) ([1]; compression test under 1, 2 and 3 tons) | solid form stability (form recovered after treatment) ([1]; shredding treatment) | stability of the crystalline form [2] | SMILES
1 | stable | stable | stable | stable | stable | stable |  | CCc1cc(/C(C)=N/OCc2ccc(C3CCCCC3)c(C(F)(F)F)c2)ccc1CN1CC(C(=O)O)C1 [NP04 Form, Siponimod Hemifumarate]
2 |  |  |  |  |  |  | unstable and converts to the NP04 Form | CCc1cc(/C(C)=N/OCc2ccc(C3CCCCC3)c(C(F)(F)F)c2)ccc1CN1CC(C(=O)O)C1 [NP01 Form, Siponimod Hemifumarate]
